Source: patent US12044651B2, “Sensor device and methods” (SCENTIAN BIO LIMITED, priority 2016, dated 2024)

Tests used:
[1] = target: T1, OR35a (Drosophila melanogaster, UniProt Q9V3Q2); assay: CNT-FET sensor covalently functionalized with Or35a nanodiscs (Example 3); type: binding
T1 sequence (Q9V3Q2 1-409): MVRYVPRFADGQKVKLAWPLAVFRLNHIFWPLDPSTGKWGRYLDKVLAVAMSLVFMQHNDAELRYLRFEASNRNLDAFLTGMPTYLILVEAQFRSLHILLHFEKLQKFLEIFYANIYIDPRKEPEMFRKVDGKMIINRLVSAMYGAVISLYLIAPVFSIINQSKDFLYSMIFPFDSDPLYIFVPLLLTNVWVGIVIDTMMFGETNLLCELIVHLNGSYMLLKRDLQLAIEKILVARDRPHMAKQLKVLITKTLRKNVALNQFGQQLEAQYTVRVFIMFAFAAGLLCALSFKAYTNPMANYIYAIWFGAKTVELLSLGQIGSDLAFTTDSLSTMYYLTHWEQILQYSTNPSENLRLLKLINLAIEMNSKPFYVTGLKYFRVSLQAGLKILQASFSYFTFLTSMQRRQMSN
Experimental: The dispersion was sonicated until a clear solution was obtained. The temperature was kept at 25° C. throughout the sonication process. The thiolpyridine solution was prepared by dissolving 10 mg of 2-Mercaptopyridine (99%, Sigma Aldrich) in 1 ml of methanol. The solution was spun coated on a polydimethylsiloxane (PDMS) surface at 2000 rpm for one minute. Before the spin coating process, the PDMS surface was cleaned by a 50 W Oxygen plasma for 1 minute to improve the wettability. The cleaned substrates were placed upside down on the PDMS surface for three minutes and washed in ethanol to remove the excess thiolpyridine molecules. Then the substrates were transferred into the CNT suspension and immersed into the suspension for 10 minutes. The samples were removed from the suspension and dipped into Ethanol for another 10 minutes to remove the thiolpyridine molecules in the SWNT network. The alignment markers were deposited by defining the markers by photolithography and thermal evaporation of 5 nm Chromium and 50 nm of Gold. The metal Lift off was done by acetone immersion for 15 minutes followed by an Isopropyl alcohol (IPA) wash and N2 blow dry. The result is a uniform thin film CNT network covering the entire substrate surface. The purification procedure is a variation on the one detailed in […] et al. 2013^14. […] Purity was assessed on Coomassie stained SDS-PAGE gels and Western blotting. […]

[2] = QCM-D control with empty liposomes (Example 6); conditions: empty liposomes immobilised on the QCM
Experimental: Gold (100 nm) sensor crystals were sonicated in ethanol and milli-Q water for 15 minutes each respectively. A 5:1:1 volume ratio of milli-Q water, ammonia (25%), and hydrogen peroxide (30%) was heated to 75° C. for 5 minutes and the sonicated crystals were placed in the heated solution for 5 minutes. Then the crystals were removed from the solution and rinsed with milli-Q water before drying with nitrogen gas. The clean gold crystals were thiol-functionalized by exposing them to 2 mM ethanolic solution of MHA overnight followed by washing with ethanol solution in order to remove excess or loosely bound molecules. The SAM functionalized crystals were then placed into the Q-sense analyser instrument (Biolin Scientific) chamber and flowed with the NHS/EDC, OR22a/liposomes and various concentrations of methyl hexanoate (1.6 μM, 8 μM, 40 μM, 200 μM and 1 mM) in PBS buffer solution to measure the changes in frequency (Δf) and dissipation (ΔD) values.

In the case of `CCC/C=C/C=O` [E2-hexenal], the limit of detection ([1]; nanodiscs 1:100 dilution) is reported as “below 1 fM” and the “concentration at which clear electronic response starts” value ([1]; real time current measurement mode) is reported as 1 fM.
For `CCCCCC(=O)OC` [methyl hexanoate], the “increase in oscillation frequency” value [2] was “not observed”.
